According to ChEMBL document CHEMBL3885881, “DrugMatrix”:

Species on record: Rattus norvegicus
Experiment: DrugMatrix - Regimen: Daily Repeat
Format: toxicity, organism-based, Sprague-Dawley
Design: regimen Daily Repeat, gender Male, age 6-8 weeks
Conditions: in vivo, iv, vehicle 100 % SALINE; for ABSOLUTE BASOPHIL / ABSOLUTE EOSINOPHIL / ABSOLUTE LYMPHOCYTE / ABSOLUTE MONOCYTE / ABSOLUTE SEGMENTED NEUTROPHIL / BASOPHIL / EOSINOPHIL / ERYTHROCYTE COUNT / HEMATOCRIT / HEMOGLOBIN / LEUKOCYTE COUNT / LYMPHOCYTE / MEAN CORPUSCULAR HEMOGLOBIN / MEAN CORPUSCULAR HEMOGLOBIN CONCENTRATION / MEAN CORPUSCULAR VOLUME / MONOCYTE / NEUTROPHIL / NUCLEATED RED BLOOD CELLS / PLATELET COUNT: tissue Blood; for ALANINE AMINOTRANSFERASE / ALBUMIN / ALKALINE PHOSPHATASE / ASPARTATE AMINOTRANSFERASE / BLOOD UREA NITROGEN / CARBON DIOXIDE / CHLORIDE / CHOLESTEROL / CREATINE PHOSPHOKINASE / CREATININE / GLUCOSE / LACTATE DEHYDROGENASE / LIPASE / PHOSPHORUS / POTASSIUM / SODIUM / TOTAL BILIRUBIN / TOTAL PROTEIN / URIC ACID: tissue Plasma
[1] = 11 mg/kg, 72 h, dose level High, time 3 day
[2] = 11 mg/kg, 120 h, dose level High, time 5 day
[3] = […], 72 h, dose 2.6 mg/Kg, dose level Low, time 3 day
[4] = […], 120 h, dose 2.6 mg/Kg, dose level Low, time 5 day

Nc1ccn([C@@H]2O[C@H](CO)[C@@H](O)C2(F)F)c(=O)n1 [GEMCITABINE]
ABSOLUTE BASOPHIL [1]: 0 CELLS/uL | ABSOLUTE EOSINOPHIL [1]: 0 CELLS/uL | ABSOLUTE LYMPHOCYTE [1]: 4311.33 CELLS/uL | ABSOLUTE MONOCYTE [1]: 21.67 CELLS/uL | ABSOLUTE SEGMENTED NEUTROPHIL [1]: 200.33 CELLS/uL | BASOPHIL [1]: 0% | EOSINOPHIL [1]: 0% | ERYTHROCYTE COUNT [1]: 5.19 x10E6/uL | HEMATOCRIT [1]: 33.27% | HEMOGLOBIN [1]: 13.03 G/DL | LEUKOCYTE COUNT [1]: 4.53 x10E3/uL | LYMPHOCYTE [1]: 95% | MEAN CORPUSCULAR HEMOGLOBIN [1]: 25.07 pg | MEAN CORPUSCULAR HEMOGLOBIN CONCENTRATION [1]: 39.2 G/DL | MEAN CORPUSCULAR VOLUME [1]: 63.93 fL | MONOCYTE [1]: 0.33% | NEUTROPHIL [1]: 4.67% | NUCLEATED RED BLOOD CELLS [1]: 0 /100WBC | PLATELET COUNT [1]: 706.67 x10E3/uL | ALANINE AMINOTRANSFERASE [1]: 46.67 u/L | ALBUMIN [1]: 3.5 G/DL | ALKALINE PHOSPHATASE [1]: 373 u/L | ASPARTATE AMINOTRANSFERASE [1]: 100.67 u/L | BLOOD UREA NITROGEN [1]: 15.67 mg/dL | CARBON DIOXIDE [1]: 24.33 mmol/L | CHLORIDE [1]: 107.33 MEQ/L | CHOLESTEROL [1]: 63.33 mg/dL | CREATINE PHOSPHOKINASE [1]: 316.67 u/L | CREATININE [1]: 0.13 mg/dL | GLUCOSE [1]: 143 mg/dL | LACTATE DEHYDROGENASE [1]: 80.33 u/L | LIPASE [1]: 8 u/L | PHOSPHORUS [1]: 9.73 mg/dL | POTASSIUM [1]: 5.2 MEQ/L | SODIUM [1]: 145.57 MEQ/L | TOTAL BILIRUBIN [1]: 0.17 mg/dL | TOTAL PROTEIN [1]: 4.97 G/DL | URIC ACID [1]: 1.3 mg/dL | ABSOLUTE BASOPHIL [2]: 0 CELLS/uL | ABSOLUTE EOSINOPHIL [2]: 12.67 CELLS/uL | ABSOLUTE LYMPHOCYTE [2]: 2696.33 CELLS/uL | ABSOLUTE MONOCYTE [2]: 10 CELLS/uL | ABSOLUTE SEGMENTED NEUTROPHIL [2]: 47.67 CELLS/uL | BASOPHIL [2]: 0% | EOSINOPHIL [2]: 0.33% | ERYTHROCYTE COUNT [2]: 8.1 x10E6/uL | HEMATOCRIT [2]: 50% | HEMOGLOBIN [2]: 19.4 G/DL | LEUKOCYTE COUNT [2]: 2.77 x10E3/uL | LYMPHOCYTE [2]: 97.67% | MEAN CORPUSCULAR HEMOGLOBIN [2]: 24 pg | MEAN CORPUSCULAR HEMOGLOBIN CONCENTRATION [2]: 38.9 G/DL | MEAN CORPUSCULAR VOLUME [2]: 61.67 fL | MONOCYTE [2]: 0.33% | NEUTROPHIL [2]: 1.67% | NUCLEATED RED BLOOD CELLS [2]: 0.33 /100WBC | PLATELET COUNT [2]: 374.33 x10E3/uL | ALANINE AMINOTRANSFERASE [2]: 34.67 u/L | ALBUMIN [2]: 3.5 G/DL | ALKALINE PHOSPHATASE [2]: 152.67 u/L | ASPARTATE AMINOTRANSFERASE [2]: 232 u/L | BLOOD UREA NITROGEN [2]: 36.67 mg/dL | CARBON DIOXIDE [2]: 26.33 mmol/L | CHLORIDE [2]: 107 MEQ/L | CHOLESTEROL [2]: 104.67 mg/dL | CREATINE PHOSPHOKINASE [2]: 2721.33 u/L | CREATININE [2]: 0.23 mg/dL | GLUCOSE [2]: 286.33 mg/dL | LACTATE DEHYDROGENASE [2]: 384.67 u/L | LIPASE [2]: 10.33 u/L | PHOSPHORUS [2]: 10.93 mg/dL | POTASSIUM [2]: 4.87 MEQ/L | SODIUM [2]: 146.9 MEQ/L | TOTAL BILIRUBIN [2]: 0.1 mg/dL | TOTAL PROTEIN [2]: 6.03 G/DL | URIC ACID [2]: 1.6 mg/dL | ABSOLUTE BASOPHIL [3]: 0 CELLS/uL | ABSOLUTE EOSINOPHIL [3]: 0 CELLS/uL | ABSOLUTE LYMPHOCYTE [3]: 7048.67 CELLS/uL | ABSOLUTE MONOCYTE [3]: 0 CELLS/uL | ABSOLUTE SEGMENTED NEUTROPHIL [3]: 484.67 CELLS/uL | BASOPHIL [3]: 0% | EOSINOPHIL [3]: 0% | ERYTHROCYTE COUNT [3]: 5.03 x10E6/uL | HEMATOCRIT [3]: 31.87% | HEMOGLOBIN [3]: 12.73 G/DL | LEUKOCYTE COUNT [3]: 7.53 x10E3/uL | LYMPHOCYTE [3]: 93.67% | MEAN CORPUSCULAR HEMOGLOBIN [3]: 25.37 pg | MEAN CORPUSCULAR HEMOGLOBIN CONCENTRATION [3]: 39.97 G/DL | MEAN CORPUSCULAR VOLUME [3]: 63.43 fL | MONOCYTE [3]: 0% | NEUTROPHIL [3]: 6.33% | NUCLEATED RED BLOOD CELLS [3]: 0 /100WBC | PLATELET COUNT [3]: 1190.67 x10E3/uL | ALANINE AMINOTRANSFERASE [3]: 55.33 u/L | ALBUMIN [3]: 4.03 G/DL | ALKALINE PHOSPHATASE [3]: 332.67 u/L | ASPARTATE AMINOTRANSFERASE [3]: 110 u/L | BLOOD UREA NITROGEN [3]: 16.67 mg/dL | CARBON DIOXIDE [3]: 25 mmol/L | CHLORIDE [3]: 97.67 MEQ/L | CHOLESTEROL [3]: 76.67 mg/dL | CREATINE PHOSPHOKINASE [3]: 485.33 u/L | CREATININE [3]: 0.14 mg/dL | GLUCOSE [3]: 175.33 mg/dL | LACTATE DEHYDROGENASE [3]: 141.67 u/L | LIPASE [3]: 9 u/L | PHOSPHORUS [3]: 12.07 mg/dL | POTASSIUM [3]: 6.4 MEQ/L | SODIUM [3]: 141.6 MEQ/L | TOTAL BILIRUBIN [3]: 0.2 mg/dL | TOTAL PROTEIN [3]: 5.93 G/DL | URIC ACID [3]: 1.5 mg/dL | ABSOLUTE BASOPHIL [4]: 0 CELLS/uL | ABSOLUTE EOSINOPHIL [4]: 0 CELLS/uL | ABSOLUTE LYMPHOCYTE [4]: 4224 CELLS/uL | ABSOLUTE MONOCYTE [4]: 19 CELLS/uL | ABSOLUTE SEGMENTED NEUTROPHIL [4]: 23.67 CELLS/uL | BASOPHIL [4]: 0% | EOSINOPHIL [4]: 0% | ERYTHROCYTE COUNT [4]: 5.09 x10E6/uL | HEMATOCRIT [4]: 32.1% | HEMOGLOBIN [4]: 12.83 G/DL | LEUKOCYTE COUNT [4]: 4.27 x10E3/uL | LYMPHOCYTE [4]: 99% | MEAN CORPUSCULAR HEMOGLOBIN [4]: 25.2 pg | MEAN CORPUSCULAR HEMOGLOBIN CONCENTRATION [4]: 39.97 G/DL | MEAN CORPUSCULAR VOLUME [4]: 63.1 fL | MONOCYTE [4]: 0.33% | NEUTROPHIL [4]: 0.67% | NUCLEATED RED BLOOD CELLS [4]: 0.33 /100WBC | PLATELET COUNT [4]: 699.67 x10E3/uL | ALANINE AMINOTRANSFERASE [4]: 46.33 u/L | ALBUMIN [4]: 4.17 G/DL | ALKALINE PHOSPHATASE [4]: 368 u/L | ASPARTATE AMINOTRANSFERASE [4]: 127.67 u/L | BLOOD UREA NITROGEN [4]: 13.33 mg/dL | CARBON DIOXIDE [4]: 24.67 mmol/L | CHLORIDE [4]: 104 MEQ/L | CHOLESTEROL [4]: 70.67 mg/dL | CREATINE PHOSPHOKINASE [4]: 350.33 u/L | CREATININE [4]: 0.12 mg/dL | GLUCOSE [4]: 151.67 mg/dL | LACTATE DEHYDROGENASE [4]: 93.33 u/L | LIPASE [4]: 8 u/L | PHOSPHORUS [4]: 11.03 mg/dL | POTASSIUM [4]: 6.21 MEQ/L | SODIUM [4]: 143.67 MEQ/L | TOTAL BILIRUBIN [4]: 0.1 mg/dL | TOTAL PROTEIN [4]: 6.03 G/DL | URIC ACID [4]: 1.63 mg/dL
